Test results taken from publication PMC6405874, “Development of a novel short 12-meric papiliocin-derived peptide that is effective against Gram-negative sepsis” (Scientific Reports, 2019).
No end group written: not given here.

Assays:
A. baumannii (KCTC 2508) = details: 1% peptone, 2 × 10^6 CFU/mL, 16 h, 37 °C
Method: (§1) The antimicrobial activities of Pap12 peptides were tested against four standard Gram-negative bacteria (E. coli, Pseudomonas aeruginosa, Acinetobacter baumannii, and Salmonella typhimurium), three standard Gram-positive bacteria (Staphylococcus aureus, Bacillus subtilis, and Staphylococcus epidermidis), and five MDR bacteria (MDREC CCARM 1229, MDRPA CCARM 2002, MDRAB CCARM 12035, MDRST CCARM 8007, and MRSA CCARM 3126) using the microbroth dilution method. The relative antibacterial activities were compared based on geometric means of MICs (GM).
(§2) Escherichia coli (KCTC 1682), Pseudomonas aeruginosa (KCTC 2004), Acinetobacter baumannii (KCTC 2508), Salmonella typhimurium (KCTC 1926), Bacillus subtilis (KCTC 3068), Staphylococcus aureus (KCTC 1621), and Staphylococcus epidermidis (KCTC 1917) were purchased from the Korean Collection for Type Cultures, Korea Research Institute of Bioscience & Biotechnology (Taejon, Korea). Clinical isolates of MDR E. coli (MDREC; CCARM 1229), P. aeruginosa (MDRPA; CCARM 2002), A. baumannii (MDRAB; CCARM 12035), S. typhimurium (MDRST; CCARM 8007), and S. aureus (MDRSA; CCARM 3126) were supplied by the Culture Collection of Antibiotic-Resistant Microbe (CCARM) at Seoul Women’s University in Korea. The E. coli K1 strain RS218 (O18:K1:H7) was kindly provided by Dr. Jang-Won Yoon of Kangwon National University (Gangwon-do, Korea).
(§3) Peptides were treated with 2 × 10^6 CFU/mL bacterial suspensions in 1% peptone media for 16 h at 37 °C.

B. subtilis (KCTC 3068) = details: 1% peptone, 2 × 10^6 CFU/mL, 16 h, 37 °C
Method: as §1, §2, §3

E. coli (KCTC 1682) = details: 1% peptone, 2 × 10^6 CFU/mL, 16 h, 37 °C
Method: as §1, §2, §3

[1] = test system: MDRAB 12035 (MDR A. baumannii CCARM 12035); details: 1% peptone, 2 × 10^6 CFU/mL, 16 h, 37 °C
Method: as §1, §2, §3

[2] = test system: MDREC 1229 (MDR E. coli CCARM 1229); details: 1% peptone, 2 × 10^6 CFU/mL, 16 h, 37 °C
Method: as §1, §2, §3

[3] = test system: MDRPA 2002 (MDR P. aeruginosa CCARM 2002); details: 1% peptone, 2 × 10^6 CFU/mL, 16 h, 37 °C
Method: as §1, §2, §3

[4] = test system: MDRST 8007 (MDR S. typhimurium CCARM 8007); details: 1% peptone, 2 × 10^6 CFU/mL, 16 h, 37 °C
Method: as §1, §2, §3

MRSA 3126 (CCARM 3126) = details: 1% peptone, 2 × 10^6 CFU/mL, 16 h, 37 °C
Method: as §1, §2, §3

[5] = test system: P. aeruginosa (KCTC 2004); details: 1% peptone, 2 × 10^6 CFU/mL, 16 h, 37 °C
Method: as §1, §2, §3

S. aureus (KCTC 1621) = details: 1% peptone, 2 × 10^6 CFU/mL, 16 h, 37 °C
Method: as §1, §2, §3

[6] = test system: S. epidermidis (KCTC 1917); details: 1% peptone, 2 × 10^6 CFU/mL, 16 h, 37 °C
Method: as §1, §2, §3

[7] = test system: S. typhimurium (KCTC 1926); details: 1% peptone, 2 × 10^6 CFU/mL, 16 h, 37 °C
Method: as §1, §2, §3

Gram-negative bacteria = details: eight Gram-negative strains of Table 2
Method: as §1
(§4) The therapeutic index (TI) was calculated (Table 2) using HC10, the peptide concentration required to induce 10% hemolysis.
as §3

Gram-positive bacteria = details: four Gram-positive strains of Table 2
Method: as §1, §4, §3

[8] = test system: human red blood cells (hRBCs); assay: Hemolysis of human red blood cells
Method: as §4
The toxicity of peptides to human red blood cells (hRBCs) was determined by measuring the peptide-induced release of haem, and percent hemolysis was calculated as described previously. The peptide-induced cytotoxicity of mouse RAW 264.7 macrophages, human keratinocyte HaCaT cells, and HEK-293 cells were determined by 3-(4,5-dimethylthiazol-2-yl)-2,5-diphenyltetrazolium bromide (MTT) assays as previously described.

Row | Substance | Minimal inhibitory concentration (MIC), A. baumannii (A. baumannii (KCTC 2508)) | Minimal inhibitory concentration (MIC), B. subtilis (B. subtilis (KCTC 3068)) | Minimal inhibitory concentration (MIC), E. coli (E. coli (KCTC 1682)) | Minimal inhibitory concentration (MIC), MDRAB 12035 [1] | Minimal inhibitory concentration (MIC), MDREC 1229 [2] | Minimal inhibitory concentration (MIC), MDRPA 2002 [3] | Minimal inhibitory concentration (MIC), MDRST 8007 [4] | Minimal inhibitory concentration (MIC), MRSA 3126 (MRSA 3126 (CCARM 3126)) | Minimal inhibitory concentration (MIC), P. aeruginosa [5] | Minimal inhibitory concentration (MIC), S. aureus (S. aureus (KCTC 1621)) | Minimal inhibitory concentration (MIC), S. epidermidis [6] | Minimal inhibitory concentration (MIC), S. typhimurium [7] | GM, geometric mean of MICs, Gram-negative bacteria (Gram-negative bacteria) | GM, geometric mean of MICs, Gram-positive bacteria (Gram-positive bacteria) | HC10, peptide concentration resulting in 10% hemolysis of fresh human erythrocytes [8]
1 | RWKIFKKAAKKG-NH2 [Pap12-2] | 32 µM | 16 µM | 8 µM | 16 µM | 32 µM | 16 µM | 16 µM | 16 µM | 8 µM | 16 µM | 32 µM | 16 µM | 18 µM | 20 µM | 200 µM
2 | RWKIFKKIEKVG-NH2 [Pap12-1] | 64 µM | 64 µM | 16 µM | 16 µM | 64 µM | 16 µM | 32 µM | 64 µM | 8 µM | 16 µM | 64 µM | 64 µM | 35 µM | 52 µM | 200 µM
3 | RWKIFKKVVKKG-NH2 [Pap12-3] | 16 µM | 16 µM | 8 µM | 16 µM | 16 µM | 32 µM | 16 µM | 16 µM | 8 µM | 8 µM | 16 µM | 16 µM | 16 µM | 14 µM | 200 µM
4 | RWKIFKKAAKKA-NH2 [Pap12-4] | 32 µM | 16 µM | 8 µM | 16 µM | 32 µM | 32 µM | 16 µM | 32 µM | 8 µM | 8 µM | 32 µM | 32 µM | 22 µM | 22 µM | 200 µM
